Assay results as given in patent publication US4079139A, “Flavone derivatives” (priority 1974, dated 1978).
Like-named read-outs stand apart in the source and are kept apart here.

Key:
[1] = tested on: toxicity of sodium Pentobarbital; test: "Life-saving" effect: influence on the toxicity of sodium Pentobarbital; settings: for PR (ratio between the LD50 of Pentobarbital with and without pre-treatment with the stimulant): mouse, in vivo
[2] = tested on: respiratory and cardiocirculatory activity; settings: rabbit; for convulsive phenomena: in vivo, iv
Mouse [3] = settings: cited from earlier work
[4] = Convulsivant effect on mouse; settings: mouse, in vivo, po
mouse [5] = test: Convulsivant effect on mouse; settings: for stimulant action on the CNS indicated by the ratio LD50/CD50: mouse, in vivo
Acute toxicity in rat = test: Acute toxicity in rat; design: species or system rats Sprague-Dauley; settings: in vivo, read-out: LD50 and F.L.
Procedure: The test has been performed on Swiss mice of the weight of 20-22 g and on rats Sprague-Dauley of the weight of 120-130 g, subdivided in groups comprising 5 male and 5 female animals. The new drugs have been administered to animals hungry since 15-18 hours, both by oral and i.p.route. The LD50 values have been determined according to Litchfield and Wilcoxon (J.Pharmacol.96,99,1949). The results are reported in the following Table 1, in comparison with LD50 value for Dimefline.

[6] = Stimulating activity on the CNS (analeptic activity, ED50); assay type: in vivo
mouse [7] = settings: in vivo
Mouse [8] = test: Acute toxicity in mouse; settings: in words
Acute toxicity in mouse = settings: mouse, in vivo
[9] = tested on: respiratory depression induced by morphine; settings: rabbit
rat = test: Chronic toxicity in rat
[10] = rat, 5 and 10 mg/kg, 5 times/week over 12 weeks

COc1ccc2c(=O)c(C)c(-c3ccccc3)oc2c1CN(C)C [Dimefline]
PR (ratio between the LD50 of Pentobarbital with and without pre-treatment with the stimulant) [1]: 1,27 | convulsive phenomena [2]: several cases showing convulsive phenomena | LD50 and F.L. (Mouse [3]; i.p., Setnikar, J.Pharmacol.128, 176, 1960): 4.8 (4.6-5.0) mg/KG | LD50 and F.L. (Mouse [3]; in vivo, po): 11.9 (10.3-13.8) mg/KG | LD50 and L.F. (Mouse [3]; in vivo): 11,9 (10,3-13,8) mg/Kg | TD50 [4]: 8.9 mg/kg | start of the convulsivant effect (mouse [5]; in comparison with PV1, in words): starts at by far lower doses | stimulant action on the CNS indicated by the ratio LD50/CD50 (mouse [5]): equivalent for the two drugs

COc1ccc2c(=O)c(-c3ccccc3)c(-c3ccc(C)cc3)oc2c1CN(C)C [PV1]
reduction of the toxicity of Pentobarbital ([1]; equi-toxic doses, vs Dimefline, in words): reduces the toxicity of Pentobarbital much more than Dimefline | PR (ratio between the LD50 of Pentobarbital with and without pre-treatment with the stimulant) [1]: 1,39 | respiratory amplitude and frequency ([2]; i.v. 1.25 - 2.5-5 mg/kg, without morphine): constantly reduced the gradual diminution of the respiratory amplitude and frequency | convulsive phenomena [2]: no convulsive phenomenon was detected | LD50 (Acute toxicity in rat; ip): 22.5 mg/kg | LD50 (Acute toxicity in rat; po, os): 76.4 mg/kg | ED50 [6]: 5 mg/kg | R(LD50 /CD50) (mouse [7]): 1,38 | acute toxicity compared with Dimefline (Mouse [8]): by far less toxic than Dimefline | LD50 (Acute toxicity in mouse): 80 mg/kg | LD50 (Acute toxicity in mouse; ip): 28.2 mg/kg | LD50 (Acute toxicity in mouse; po): 80 mg/kg | antagonism of the intermittent breath of Sheyne-Stoches ([9]; i.v. 1.25 mg/kg, after morphine 10 mg/kg): uneffective | reinstatement of normal respiratory amplitude and frequency ([9]; i.v. 2.5 mg/kg, after morphine 10 mg/kg, repeated administration needed): effective to reinstate normal values of respiratory amplitude and frequency, but needed repeated administration | reinstatement of normal respiratory amplitude and frequency ([9]; i.v. 5 mg/kg, after morphine 10 mg/kg, only one administration): quite effective | cardiocirculatory conditions ([9]; in vivo, iv): not remarkably affected | HB (rat; 5 mg/Kg, 12 weeks): 14,88 ± 0,36% | Hemazies (rat; 5 mg/Kg, 12 weeks): 7,38 ± 0,21 10^6 /mm^3 | Leucocytes (rat; 5 mg/Kg, 12 weeks): 17,04 ± 1,36 10^3 /mm^3 | Leucocytic formula: bas (rat; 5 mg/Kg, 12 weeks): 0 | Leucocytic formula: eosin (rat; 5 mg/Kg, 12 weeks): 0,9 | Leucocytic formula: linf. (rat; 5 mg/Kg, 12 weeks): 77,6 | Leucocytic formula: monoc. (rat; 5 mg/Kg, 12 weeks): 7,9 | Leucocytic formula: neutr. (rat; 5 mg/Kg, 12 weeks): 13,6 | analysis of urine: Hemoglobin (rat; 5 mg/kg): 1(+) | analysis of urine: Proteins (rat; 5 mg/kg): 6(+) | analysis of urine: Residue (rat; 5 mg/kg): normal | relative average weight: Brain (rat; 5 mg/kg): 579,6 ± 24,5 mg/100 g of body weight | relative average weight: Heart (rat; 5 mg/kg): 289,9 ± 11,2 mg/100 g of body weight | relative average weight: Liver (rat; 5 mg/kg): 3012 mg/100 g of body weight | relative average weight: Loins (rat; 5 mg/kg): 658,5 ± 26,4 mg/100 g of body weight | relative average weight: Spleen (rat; 5 mg/kg): 304,2 ± 16,6 mg/100 g of body weight | Azotemia (rat; 5 mg/kg, 12 weeks): 15,7 ± 0,5 mg/100 ml | Glycemia (rat; 5 mg/kg, 12 weeks): 87,8 ± 3,9 mg/100 ml | SGOT (rat; 5 mg/kg, 12 weeks): 12,9 ± 0,8 mU/ml | SGPT (rat; 5 mg/kg, 12 weeks): 12,1 ± 0,6 mU/ml | HB (rat; 10 mg/Kg, 12 weeks): 15,02 ± 0,42% | Hemazies (rat; 10 mg/Kg, 12 weeks): 7,40 ± 0,20 10^6 /mm^3 | Leucocytes (rat; 10 mg/Kg, 12 weeks): 16,70 ± 1,70 10^3 /mm^3 | Leucocytic formula: bas (rat; 10 mg/Kg, 12 weeks): 0 | Leucocytic formula: eosin (rat; 10 mg/Kg, 12 weeks): 0,7 | Leucocytic formula: linf. (rat; 10 mg/Kg, 12 weeks): 77,8 | Leucocytic formula: monoc. (rat; 10 mg/Kg, 12 weeks): 9,4 | Leucocytic formula: neutr. (rat; 10 mg/Kg, 12 weeks): 12,1 | analysis of urine: Hemoglobin (rat; 10 mg/kg): 2(+) | analysis of urine: Residue (rat; 10 mg/kg): normal | relative average weight: Brain (rat; 10 mg/kg): 583,7 ± 19,8 mg/100 g of body weight | relative average weight: Heart (rat; 10 mg/kg): 288,8 ± 11,3 mg/100 g of body weight | relative average weight: Liver (rat; 10 mg/kg): 3036,5 mg/100 g of body weight | relative average weight: Loins (rat; 10 mg/kg): 672,8 ± 29,6 mg/100 g of body weight | relative average weight: Spleen (rat; 10 mg/kg): 303,7 ± 13,5 mg/100 g of body weight | Azotemia (rat; 10 mg/kg, 12 weeks): 32,5 ± 1,6 mg/100 ml | Glycemia (rat; 10 mg/kg, 12 weeks): 80,3 ± 4,1 mg/100 ml | SGOT (rat; 10 mg/kg, 12 weeks): 12,3 ± 0,5 mU/ml | SGPT (rat; 10 mg/kg, 12 weeks): 10,4 ± 0,7 mU/ml | deaths (rat; [10]): No death has been registered | increase in the weight of the treated animals (rat; [10]): identical to that of the controls | intolerance of the drug (rat; [10]): No intolerance of the drug has been noted | autopsy (rat; rat, 5 and 10 mg/kg, 12 weeks): no lesion of the different organs | hematologic and hematochemical tests (rat; rat, 5 and 10 mg/kg, 12 weeks, vs controls, in words): do not show significant difference between controls and treated animals | TD50 [4]: 58 mg/kg | stimulant action on the CNS indicated by the ratio LD50/CD50 (mouse [5]): equivalent for the two drugs
